Here are results for 1 molecule from patent US20240417812A1, “METHODS FOR TREATING SOLID CANCER PATIENTS WITH CLONAL HEMATOPOIESIS OF INDETERMINATE POTENTIAL” (Olatec Therapeutics, Inc., priority 2022, published 2024).

Data set [1] in a line: Blood level in mice fed dapansutrile food pellets. Type of data set: in vivo, mouse. The settings on record: 7.5 g/kg of dapansutrile in food (approx. 1,000 mg/kg/day). An excerpt: (§1) 2×10^5 E0771 cells were mixed with matrigel and implanted orthotopically into the mammary fat pad (day 0). Mice treated with dapansutrile were fed ad libitum with food pellets containing 7.5 g dapansutrile/kg food, which started on day 3 after E0771 cell implantation and continued until being sacrificed. Mice were sacrificed on day 18 for the germline mouse model and day 15 for the chimeric mouse model. Mice typically consume about 4 g of food per day, resulting in an approximate daily dose of 0 mg/kg/day for control groups and 1,000 mg/kg/day for the treatment groups. […] Wild-type and Tet2+/− mice were fed with control food pellets without dapansutrile. Mice were sacrificed following 15-18 days after E0771 cell implantation. Tumor volumes were assessed using ½(L×W×H) measured via digital caliper.

The target of data set [2] is NLRP3 inflammasome (Homo sapiens, UniProt Q96P20). The settings on record: cited from earlier work.
Sequence of NLRP3 inflammasome (Q96P20 whole entry): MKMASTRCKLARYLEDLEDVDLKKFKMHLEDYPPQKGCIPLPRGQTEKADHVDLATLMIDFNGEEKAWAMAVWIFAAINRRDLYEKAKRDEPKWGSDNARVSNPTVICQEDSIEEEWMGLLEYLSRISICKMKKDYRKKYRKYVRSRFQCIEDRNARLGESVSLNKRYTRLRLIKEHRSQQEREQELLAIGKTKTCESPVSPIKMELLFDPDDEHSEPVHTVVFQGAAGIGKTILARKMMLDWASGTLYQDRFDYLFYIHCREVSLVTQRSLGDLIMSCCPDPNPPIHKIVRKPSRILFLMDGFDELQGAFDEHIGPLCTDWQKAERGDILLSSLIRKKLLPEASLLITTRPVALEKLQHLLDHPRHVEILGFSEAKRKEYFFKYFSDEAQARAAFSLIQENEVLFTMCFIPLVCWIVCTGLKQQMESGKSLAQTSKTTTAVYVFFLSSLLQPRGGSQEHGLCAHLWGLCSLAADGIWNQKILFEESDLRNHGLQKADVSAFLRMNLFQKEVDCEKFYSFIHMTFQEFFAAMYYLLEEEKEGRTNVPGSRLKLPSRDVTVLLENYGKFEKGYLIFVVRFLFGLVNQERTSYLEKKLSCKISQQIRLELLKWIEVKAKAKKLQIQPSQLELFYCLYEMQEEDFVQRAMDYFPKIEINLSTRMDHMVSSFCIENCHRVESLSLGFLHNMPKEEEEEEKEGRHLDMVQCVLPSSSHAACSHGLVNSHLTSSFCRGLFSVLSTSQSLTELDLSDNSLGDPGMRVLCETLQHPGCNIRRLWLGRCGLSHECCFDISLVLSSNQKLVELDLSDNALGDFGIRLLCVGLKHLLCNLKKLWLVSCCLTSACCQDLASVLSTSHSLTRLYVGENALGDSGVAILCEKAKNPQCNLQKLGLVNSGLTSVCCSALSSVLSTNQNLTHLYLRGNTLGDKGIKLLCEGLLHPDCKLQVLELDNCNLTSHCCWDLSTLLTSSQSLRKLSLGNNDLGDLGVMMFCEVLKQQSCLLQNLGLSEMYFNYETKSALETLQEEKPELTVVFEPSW
For data set [3], the system named is Tet2+/− clones. Kind of data set: Expansion of Tet2+/− clones in tumor-bearing BM chimera mice. Particulars: dapansutrile diet. It counts as in vivo, mouse. An excerpt: To create a mouse model that more closely resembles human CHIP, we generated mice with chimeric bone marrow (BM) that was 75% wild type (WT), and 25% Tet2 […] (Tet2+/+) or heterozygous (Tet2+/−). To identify the contribution of WT or Tet2+/− cells to hematopoiesis, we used the pan hematopoietic marker CD45. We used two congenic mouse strains with variants in CD45 C57BL/6 and Boy/J (CD45.2 and CD45.1, respectively), which can be identified with fluorescently labeled antibodies using flow cytometry analysis. To generate the chimeric BM, we lethally irradiated Boy/J recipient mice (CD45.1) with an 11gy split-dose administered three hours apart. Irradiated recipient mice were then transplanted with 2 million unfractionated BM cells that were a mix of 75% CD45.1 WT and 25% CD45.2
Tet2+/+ or Tet2+/−. Cells were given via a retro-orbital (RO) sinus injection. To monitor the engraftment of donor-derived cells, mice were bled every four weeks via the submandibular vein. […]
(§2) After 6 weeks of engraftment, mice were given breast tumors via orthotopic transplantation of breast cancer cells. Tumor progression was assessed by measuring the volume of the tumor in the mouse using calipers. […]
In this example, we first assessed the extent to which Tet2-deficient myeloid cells infiltrated into peripheral blood (FIG. 3A) and in the tumor (FIG. 3B).

The conditions of data set [4]: humans treated orally at 1000 mg/day; cited from earlier work.
The test system of data set [5] is E0771 cells. Kind of data set: E0771 orthotopic breast tumor model in Tet2+/+ or Tet2+/− bone marrow chimeric mice. Type of data set: in vivo, mouse.
From the text: as §1
To create a mouse model that more closely resembles human CHIP, we generated mice with chimeric bone marrow (BM) that was 75% wild type (WT), and 25% Tet2 […] (Tet2+/+) or heterozygous (Tet2+/−). To identify the contribution of WT or Tet2+/− cells to hematopoiesis, we used the pan hematopoietic marker CD45. […]
as §2

For data set [6], the system named is keratinocyte chemoattractant (KC). Kind of data set: Plasma KC of BM chimera mice. It counts as in vivo, mouse. Particulars: Tet2+/− chimeras, dapansutrile diet vs standard diet, p<0.05. An excerpt: (§3) FIGS. 5A-5B show plasma cytokine production of chemokine C-C motif ligand 2 (CCL2, 5A) and keratinocyte chemoattractant (KC, 5B) of BM chimera mice from FIG. 2

Data set [7] concerns IL-1β. Kind of data set: IL-1β production from bone marrow adherent cells isolated from tumor-bearing mice (ELISA). Type of data set: cell-based, mouse. The settings on record: adherent bone marrow cells from tumor-bearing Tet2+/− mice, LPS stimulated, dapansutrile treated vs untreated; p<0.05. As to the method: Bone marrow cells from tumor-bearing mice was collected and filtered through […] cell strainer. 3×10^6 cells were plated in 24-well plates and incubated overnight. The next day to non-adherent fraction was removed and the adherent fraction was treated with 10 μM dapansutrile and were cultured in RPMI supplemented with 10% FBS, 100 units/ml penicillin and 0.1 mg/ml streptomycin for 24 hours. Cytokines were measured in cell culture supernatants using DuoSet ELISA (R&D Systems).
Bone marrow cells were collected from the four long bones as described above and filtered through a […] cell strainer prior to counting. 1×10^6 cells were plated in flat bottom tissue culture plates and incubated overnight. The next day the non-adherent fraction was removed and the adherent fraction was used for downstream experiments.
For western blot and cytokine analysis, adherent bone marrow cells were stimulated±LPS (100 ng/mL) and cultured for an additional 24 hours. Cells were cultured in RPMI supplemented with 10% FBS, 100 units/ml penicillin and 0.1 mg/ml streptomycin. […] Cytokines were measured in cell culture supernatants using DuoSet ELISA (R&D Systems).
Next, we assessed the inflammatory potential of myeloid cells from tumor-bearing mice. […]
On the technique in general: ELISA stands for enzyme-linked immunosorbent assay.

The subject of data set [8] is tumor-infiltrating granulocytes. Kind of data set: Flow cytometry of tumor-infiltrating granulocytes of BM chimera mice. Type of data set: in vivo, mouse. The settings on record: Tet2+/− chimeras. As to the method:
After 6 weeks of engraftment, mice were given breast tumors via orthotopic transplantation of breast cancer cells. Tumor progression was assessed by measuring the volume of the tumor in the mouse using calipers. After 15 days, mice were sacrificed, and their bone marrow, peripheral blood, and tumors were harvested for flow cytometry analysis to determine the levels of immune cell populations and relative contribution from WT or Tet2+/+ or Tet2+/− bone marrow cells.
Bone marrow isolation and cell staining was performed on ice in staining medium (SM; Hanks Balanced Salt Solution [HBSS 1×, Corning 1-022-CM] supplemented with heat inactivated fetal bovine serum [FBS, VWR 97068-05] to a final concentration of 2%). Femurs and tibiae were flushed with 3 mL of SM and followed by RBC lysis with ACK lysis buffer. Peripheral blood was isolated via the heart and placed into RBC lysis buffer. After RBC lysis cells were incubated on ice for 30 minutes with antibody cocktails prior to being washed and resuspended in SM containing propidium iodide to stain dead cells. Flow cytometry was performed on the BD FACSCelesta.
For orientation: Flow cytometry measures light scatter and fluorescence of single cells or particles in a stream.

Data set [9] concerns E0771 cells. Kind of data set: E0771 orthotopic breast tumor model in germline Tet2+/+ or Tet2+/− mice. Type of data set: in vivo, mouse. As to the method: 6-8 week old B6(Cg)-Tet2tm1.2Rao/J (JAX) female mice heterozygous for Tet2 allele or wild-type for Tet2 allele were purchased for Jackson Laboratories.
The murine metastatic mammary cancer cell line E0771 was purchased from ATCC. E0771 cells were cultured in RPMI (Corning) supplemented with 10% FBS, 1% HEPES, 100 units/ml penicillin and 0.1 mg/ml streptomycin. Cells were maintained in a humidified 5% CO2 atmosphere at 37° C.
as §1
Myeloid cells are the predominant source of tumor-promoting IL-1β in the breast cancer TME, and TET2 mutations have been reported in tumor-infiltrating leukocytes. […] We orthotopically implanted the murine metastatic luminal B breast cancer cell line, E0771, into Tet2+/+ (WT) or Tet2+/− germline mice. Three days after implantation, mice were placed on a control chow diet or a nutritionally identical diet enriched with OLT1177® (dapansutrile) for 15 days. Mice were sacrificed following […] after E0771 cell implantation.

Data set [10] deals with chemokine C-C motif ligand 2 (CCL2). Kind of data set: Plasma CCL2 of BM chimera mice. Type of data set: in vivo, mouse. Particulars: Tet2+/− chimeras, dapansutrile diet vs standard diet, p<0.05.
From the text: as §3

The conditions of data set [11]: orally administered to healthy subjects; cited from earlier work.

The structures appear in SMILES notation. Where two headings read alike, the source gives them in different places.

Consider `CS(=O)(=O)CCC#N` [dapansutrile, 3-methanesulfonyl-propionitrile], for which the blood level in [1] was about 40000 ng/mL; in data set [4], 40000 ng/mL. Besides, in data set [2], the NLRP3 inflammasome inhibition result is recorded as “selectively inhibit”. Moreover, the “expansion of Tet2+/− clones” value in data set [3] is reported as “able to reduce”. Moreover, the tumor growth result in data set [5] (Tet2+/+ chimeric mice, dapansutrile diet, to baseline level equivalent to dapansutrile-treated Tet2+/− chimeric mice) is recorded as “suppressed tumor growth”; in data set [5] (Tet2+/− chimeric mice, dapansutrile diet from day 3 vs control chow, p<0.001), “suppressed”; in data set [9] (Tet2+/+ (WT) germline mice on dapansutrile vs standard diet, p<0.05), “significantly decreased”. For the same molecule, the “circulating KC” value in data set [6] is “significantly decreased”. Further, the IL-1β secretion result in data set [7] was “significantly less”. Moreover, the “tumor-infiltrating granulocytes (frequency)” value in data set [8] (dapansutrile diet vs standard diet, p<0.05) is “significantly decreased”. The “MHC-II expression (gMFI) on tumor-infiltrating granulocytes” value in data set [8] (dapansutrile diet, p<0.001) is reported as “rescued”. Also, the “tumor growth, difference between genotypes” value in [9] (Tet2+/+ (WT) vs Tet2+/− mice, both on dapansutrile diet) was “No changes in tumor growth”. The molecule further yielded a tumor growth reduction in [9] (Tet2+/− germline mice, dapansutrile diet (7.5 g/kg food, from day 3) vs Tet2+/− on standard diet, p<0.01) of 68%. For the same molecule, the “circulating CCL2” value in [10] is “significantly decreased”. The safety result in data set [11] is reported as “safe”.
